{
  "source": "PubChem BioAssay (NCI)",
  "assay_in_all_cases": "NCI anticancer screen, dose series, 48 h",
  "key": {"BT-549 breast": {"test_system": "BT-549 breast"}, "A549 NSCLC": {"test_system": "A549 NSCLC"}, "HCC-2998 colon": {"test_system": "HCC-2998 colon"}, "KM12 colon": {"test_system": "KM12 colon"}, "SK-OV-3 ovarian": {"test_system": "SK-OV-3 ovarian"}, "CCRF-CEM leukemia": {"test_system": "CCRF-CEM leukemia"}, "OVCAR-4 ovarian": {"test_system": "OVCAR-4 ovarian"}, "HOP-62 NSCLC": {"test_system": "HOP-62 NSCLC"}, "DU-145 prostate": {"test_system": "DU-145 prostate"}, "M14 melanoma": {"test_system": "M14 melanoma"}, "HT29 colon": {"test_system": "HT29 colon"}, "SF-539 CNS": {"test_system": "SF-539 CNS"}, "RPMI-8226 leukemia": {"test_system": "RPMI-8226 leukemia"}, "HOP-92 NSCLC": {"test_system": "HOP-92 NSCLC"}, "OVCAR-8 ovarian": {"test_system": "OVCAR-8 ovarian"}, "NCI/ADR-RES ovarian": {"test_system": "NCI/ADR-RES ovarian"}, "HCT-15 colon": {"test_system": "HCT-15 colon"}, "OVCAR-5 ovarian": {"test_system": "OVCAR-5 ovarian"}, "PC-3 prostate": {"test_system": "PC-3 prostate"}, "NCI-H460 lung": {"test_system": "NCI-H460 lung"}, "HCT-116 colon": {"test_system": "HCT-116 colon"}, "MOLT-4 leukemia": {"test_system": "MOLT-4 leukemia"}, "K-562 leukemia": {"test_system": "K-562 leukemia"}, "MDA-MB-435": {"test_system": "MDA-MB-435"}, "SNB-75 CNS": {"test_system": "SNB-75 CNS"}, "NCI-H522 lung": {"test_system": "NCI-H522 lung"}, "SNB-19 CNS": {"test_system": "SNB-19 CNS"}, "MCF7 breast": {"test_system": "MCF7 breast"}, "HS 578T breast": {"test_system": "HS 578T breast"}, "HL-60(TB) leukemia": {"test_system": "HL-60(TB) leukemia"}, "ACHN renal": {"test_system": "ACHN renal"}, "SR leukemia": {"test_system": "SR leukemia"}, "786-0 renal": {"test_system": "786-0 renal"}, "CAKI-1 renal": {"test_system": "CAKI-1 renal"}},
  "note": "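Assay format: 96-well plates, 48-hour exposure. Here, GI50 denotes the concentration required for 50% inhibition of growth. Definition used: TGI = concentration required for complete inhibition of growth.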",
  "data": [
    {"smiles": "CCCCOc1ccc(S(=O)(=O)N2CCN(c3nccc(N4CCOCC4)n3)CC2)cc1", "values": [
      {"measurement": "GI50", "setting": "BT-549 breast", "value": 2.45, "unit": "µM"},
      {"measurement": "TGI", "setting": "BT-549 breast", "value": "> 100", "unit": "µM"},
      {"measurement": "GI50", "setting": "A549 NSCLC", "value": 0.654, "unit": "µM"},
      {"measurement": "TGI", "setting": "A549 NSCLC", "value": "> 100", "unit": "µM"},
      {"measurement": "GI50", "setting": "HCC-2998 colon", "value": 1.84, "unit": "µM"},
      {"measurement": "TGI", "setting": "HCC-2998 colon", "value": "> 100", "unit": "µM"},
      {"measurement": "GI50", "setting": "KM12 colon", "value": 1.57, "unit": "µM"},
      {"measurement": "TGI", "setting": "KM12 colon", "value": "> 100", "unit": "µM"},
      {"measurement": "GI50", "setting": "SK-OV-3 ovarian", "value": 2.78, "unit": "µM"},
      {"measurement": "TGI", "setting": "SK-OV-3 ovarian", "value": "> 100", "unit": "µM"},
      {"measurement": "GI50", "setting": "CCRF-CEM leukemia", "value": 3.44, "unit": "µM"},
      {"measurement": "TGI", "setting": "CCRF-CEM leukemia", "value": "> 100", "unit": "µM"},
      {"measurement": "GI50", "setting": "OVCAR-4 ovarian", "value": 4.73, "unit": "µM"},
      {"measurement": "TGI", "setting": "OVCAR-4 ovarian", "value": "> 100", "unit": "µM"},
      {"measurement": "GI50", "setting": "HOP-62 NSCLC", "value": 16.3, "unit": "µM"},
      {"measurement": "TGI", "setting": "HOP-62 NSCLC", "value": "> 100", "unit": "µM"},
      {"measurement": "GI50", "setting": "DU-145 prostate", "value": 0.524, "unit": "µM"},
      {"measurement": "TGI", "setting": "DU-145 prostate", "value": "> 100", "unit": "µM"},
      {"measurement": "GI50", "setting": "M14 melanoma", "value": 2.71, "unit": "µM"},
      {"measurement": "TGI", "setting": "M14 melanoma", "value": "> 100", "unit": "µM"},
      {"measurement": "GI50", "setting": "HT29 colon", "value": 0.538, "unit": "µM"},
      {"measurement": "TGI", "setting": "HT29 colon", "value": "> 100", "unit": "µM"},
      {"measurement": "GI50", "setting": "SF-539 CNS", "value": 4.09, "unit": "µM"},
      {"measurement": "TGI", "setting": "SF-539 CNS", "value": "> 100", "unit": "µM"},
      {"measurement": "GI50", "setting": "RPMI-8226 leukemia", "value": 0.422, "unit": "µM"},
      {"measurement": "TGI", "setting": "RPMI-8226 leukemia", "value": 5.59, "unit": "µM"},
      {"measurement": "GI50", "setting": "HOP-92 NSCLC", "value": 1.8, "unit": "µM"},
      {"measurement": "TGI", "setting": "HOP-92 NSCLC", "value": 6.91, "unit": "µM"},
      {"measurement": "GI50", "setting": "OVCAR-8 ovarian", "value": 4.04, "unit": "µM"},
      {"measurement": "TGI", "setting": "OVCAR-8 ovarian", "value": "> 100", "unit": "µM"},
      {"measurement": "GI50", "setting": "NCI/ADR-RES ovarian", "value": 2.02, "unit": "µM"},
      {"measurement": "TGI", "setting": "NCI/ADR-RES ovarian", "value": "> 100", "unit": "µM"},
      {"measurement": "GI50", "setting": "HCT-15 colon", "value": 1.71, "unit": "µM"},
      {"measurement": "TGI", "setting": "HCT-15 colon", "value": "> 100", "unit": "µM"},
      {"measurement": "GI50", "setting": "OVCAR-5 ovarian", "value": "> 100", "unit": "µM"},
      {"measurement": "TGI", "setting": "OVCAR-5 ovarian", "value": "> 100", "unit": "µM"},
      {"measurement": "GI50", "setting": "PC-3 prostate", "value": 3.15, "unit": "µM"},
      {"measurement": "TGI", "setting": "PC-3 prostate", "value": "> 100", "unit": "µM"},
      {"measurement": "GI50", "setting": "NCI-H460 lung", "value": 0.481, "unit": "µM"},
      {"measurement": "TGI", "setting": "NCI-H460 lung", "value": "> 100", "unit": "µM"},
      {"measurement": "GI50", "setting": "HCT-116 colon", "value": 0.484, "unit": "µM"},
      {"measurement": "TGI", "setting": "HCT-116 colon", "value": "> 100", "unit": "µM"},
      {"measurement": "GI50", "setting": "MOLT-4 leukemia", "value": 1.4, "unit": "µM"},
      {"measurement": "TGI", "setting": "MOLT-4 leukemia", "value": "> 100", "unit": "µM"},
      {"measurement": "GI50", "setting": "K-562 leukemia", "value": 3.3, "unit": "µM"},
      {"measurement": "TGI", "setting": "K-562 leukemia", "value": "> 100", "unit": "µM"},
      {"measurement": "GI50", "setting": "MDA-MB-435", "value": 1.5, "unit": "µM"},
      {"measurement": "TGI", "setting": "MDA-MB-435", "value": "> 100", "unit": "µM"},
      {"measurement": "GI50", "setting": "SNB-75 CNS", "value": 1.77, "unit": "µM"},
      {"measurement": "TGI", "setting": "SNB-75 CNS", "value": 4.39, "unit": "µM"},
      {"measurement": "GI50", "setting": "NCI-H522 lung", "value": "> 100", "unit": "µM"},
      {"measurement": "TGI", "setting": "NCI-H522 lung", "value": "> 100", "unit": "µM"},
      {"measurement": "GI50", "setting": "SNB-19 CNS", "value": 6.65, "unit": "µM"},
      {"measurement": "TGI", "setting": "SNB-19 CNS", "value": "> 100", "unit": "µM"},
      {"measurement": "GI50", "setting": "MCF7 breast", "value": "> 100", "unit": "µM"},
      {"measurement": "TGI", "setting": "MCF7 breast", "value": "> 100", "unit": "µM"},
      {"measurement": "GI50", "setting": "HS 578T breast", "value": 3.02, "unit": "µM"},
      {"measurement": "TGI", "setting": "HS 578T breast", "value": "> 100", "unit": "µM"},
      {"measurement": "GI50", "setting": "HL-60(TB) leukemia", "value": 0.476, "unit": "µM"},
      {"measurement": "TGI", "setting": "HL-60(TB) leukemia", "value": "> 100", "unit": "µM"},
      {"measurement": "GI50", "setting": "ACHN renal", "value": 1.92, "unit": "µM"},
      {"measurement": "TGI", "setting": "ACHN renal", "value": "> 100", "unit": "µM"},
      {"measurement": "GI50", "setting": "SR leukemia", "value": 2.77, "unit": "µM"},
      {"measurement": "TGI", "setting": "SR leukemia", "value": "> 100", "unit": "µM"},
      {"measurement": "GI50", "setting": "786-0 renal", "value": 2.7, "unit": "µM"},
      {"measurement": "TGI", "setting": "786-0 renal", "value": "> 100", "unit": "µM"},
      {"measurement": "GI50", "setting": "CAKI-1 renal", "value": 1.76, "unit": "µM"},
      {"measurement": "TGI", "setting": "CAKI-1 renal", "value": "> 100", "unit": "µM"}
    ]}
  ]
}
